Test results published in article PMC7071015, “Structure-Based Design, Synthesis and Bioactivity of a New Anti-TNFα Cyclopeptide” (Molecules, 2020).
Where a SMILES comes first, the peptide text is derived from it. Bridges are numbered along the chain shown (N, C = ends). Where no end group is shown, it is not given here.

Key:
TNFα production = settings: stimulated monocytes; by promoting TNFα mRNA degradation; cited from earlier work
Description: (§1) A range of biologics targeting TNFα have been licensed for the treatment of various inflammatory diseases, such as rheumatoid arthritis and Crohn’s disease. Although these agents have high potency and specificity, they are limited by their high production costs and potential immunogenicity. […] Also, their large molecular weight and low oral stability means their administration is only feasible through injection [[12 ...

TNFα [1] = settings: cited from earlier work
Experimental: Small molecule with anti-TNFα activity with compact 3D conformations containing trifluoromethylphenyl indole and chromone moieties have previously been designed. These compounds bind with high affinity (IC50 = 13 μM) to a hydrophobic binding pocket formed by six tyrosine residues (Y59, Y119 and Y151 from chain A and B) at the interface of TNFα dimer. Alternative binding pockets that bind small molecules have also been identified from the predicted TNFα-TNFR1 complex and these involve the residues H66, L67 and L71 of TNFR1 and residues R82, F90 and F127 in TNFα [18]. Recently, a small ...

recombinant human TNFα = biological target: T1, recombinant human TNFα (Homo sapiens, UniProt P01375); assay: HEK-Blue TNFα sensor cell assay (NF-ĸB-induced SEAP reporter); format: cell-based
T1 construct: purchased InvivoGen
T1 sequence (P01375 77-233 limits assumed): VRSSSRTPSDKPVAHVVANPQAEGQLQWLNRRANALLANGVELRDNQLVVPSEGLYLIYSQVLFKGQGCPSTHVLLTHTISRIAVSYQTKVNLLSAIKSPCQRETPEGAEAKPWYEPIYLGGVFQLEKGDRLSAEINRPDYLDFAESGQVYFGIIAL
Experimental: In the assay, the cells are transfected with a secretory alkaline phosphatase reporter gene which is downstream of the NF-ĸB promoter and expressed in response to TNFα receptor activation. The alkaline phosphatase activity was then quantified by measuring the absorbance (λ = 620 nm) of coloured substrate. […] Activation of HEK-Blue TNFα cells by 1 ng/mL of human TNFα (InvivoGen) in the presence and absence of anti-hTNFα antibody (InvivoGen) were used as positive and negative controls in the anti-TNFα assay (Figure 3).
Peptides were dissolved in DMSO and solutions were diluted with the cell culture media so the final concentration of DMSO is 1%. Blank experiments with 1% DMSO were carried out.
TNFα sensor cells (HEK-Blue) were grown in Dulbecco’s Modified Eagle’s medium (DMEM) containing 4.5 g/L glucose and supplemented with 10% [v/v] heat-inactivated foetal bovine serum, 2 mM L-glutamine, 100 μg/mL normocin, 50 U/mL penicillin and 50 μg/mL streptomycin. Selective antibiotics added to the culture medium include 100 μg/mL zeocin and 1 μg/mL puromycin and avoided in initial cultures (first 2 passages). Maintenance cultures were kept in T-75 cell culture flasks and incubated in humidified incubator with 5% [v/v] […]
can then be quantified in cells supernatant (20 μL) by the reaction with 180 µL of QUANTI‐
Blue™, a reagent that turns from purple to blue in the presence of SEAP. Quantification of […]

HEK-Blue TNFα cells = settings: 24 h, OD 540 nm, at the concentration used to test anti-TNFα activity, one duplicate
Experimental: Therefore, this can be used as preliminary data for further biological evaluations.
This assay was performed with one duplicate, and the error bars show standard error.
The Vybrant®® MTT assay (Thermo Fisher Scientific) was performed following the manufacturer protocol. In this assay, cell permeable tetrazolium dye (yellow) was […] in viable cells to yield the water-insoluble formazan (purple) after incubation with HEK-TNFα cells. Formazan was then solubilised and quantified by measuring the UV absorbance at 540 nm.

[2] = qualitative; reason for NMR in methanol-d3
TNFα [3] = tested on: TNFα; design: method as in PMID 7756262; settings: K562 cells, 125I-labelled TNFα; cited from earlier work
[4] = tested on: menin-MLL protein–protein interaction; settings: cited from earlier work
Description: (§2) This was achieved by producing a cyclic peptide with higher target specificity compared to small molecules and low potential of immunogenicity when compared with biologics. Protein loops are often involved in the biomolecular recognition of proteins. Loop peptidomimetics have previously been introduced as a new class of bioactive agents. The ...

[5] = tested on: protein kinase 2 regulatory subunit (CK2β) / catalytic subunit interaction; settings: cited from earlier work
Description: as §2

[6] = cited from earlier work
Description: as §1

[7] = biological target: recombinant human tumour necrosis factor alpha (TNFα) (human) (UniProt P01375)
Sequence of recombinant human tumour necrosis factor alpha (TNFα) (human) (P01375 77-233): as the sequence (P01375 77-233 limits assumed) above

## O=C1CCC(N2C(=O)c3ccccc3C2=O)C(=O)N1 (stereo not shown) [Thalidomide]
TNFα production
  effect on TNFα production: inhibits TNFα production

## Cc1ccc(C)c(Cn2c(CO)nc3ccccc32)c1 [UCB-6876]
TNFα [1]
  effect on TNFα trimer in co-crystal structure: change in the spatial arrangement of the TNFα trimer and a loss of its 3-fold symmetry

## CC(C)C[C@@H]1NC(=O)[C@H](Cc2ccc(O)cc2)NC(=O)[C@H](CCC(N)=O)NC(=O)[C@H](CO)NC(=O)[C@H](Cc2c[nH]c3ccccc23)NC(=O)[C@@H](NC(=O)[C@@H](N)Cc2ccc(O)cc2)CSSC[C@@H](C(=O)N[C@@H](Cc2ccc(O)cc2)C(=O)O)NC1=O [WP9QY]
Recombinant human TNFα
  IC50: 122 µM
HEK-Blue TNFα cells
  cytotoxicity (MTT): no significant cytotoxicity

## CC(C)C[C@@H]1NC(=O)[C@H](CC(N)=O)NC(=O)[C@H](CCC(=O)O)NC(=O)[C@H](CO)NC(=O)[C@H](Cc2c[nH]c3ccccc23)NC(=O)[C@H](Cc2ccc(O)cc2)NC(=O)[C@H](Cc2c[nH]cn2)NC(=O)CNC(=O)[C@@H]2CCCN2C(=O)[C@H](CCC(N)=O)NC(=O)[C@H](Cc2ccccc2)NC1=O [compound 1] (cyclo(HYWSENLFQPG))
Recombinant human TNFα; 35% inhibition, 1 ng/mL recombinant human TNFα, 24 h, 1% DMSO, absorbance 620 nm, duplicates
  concentration achieving inhibition of TNFα activity by 35%: 117.4 µM
HEK-Blue TNFα cells
  cytotoxicity (MTT): no significant cytotoxicity
[2]
  solubility in water: low solubility

## Cc1ccc(C(=O)Nc2ccc(S(=O)(=O)O)c3cc(S(=O)(=O)O)cc(S(=O)(=O)O)c23)cc1NC(=O)c1cccc(NC(=O)Nc2cccc(C(=O)Nc3cc(C(=O)Nc4ccc(S(=O)(=O)O)c5cc(S(=O)(=O)O)cc(S(=O)(=O)O)c45)ccc3C)c2)c1 [suramin]
TNFα [3]
  effect on TNFα oligomer: Deoligomerisation of TNFα

## MCP-1
[4]
  inhibition of menin-MLL interaction: inhibitor of the menin-MLL protein–protein interaction

## cyclo-GCRLYGFKIHGCG [cyclic peptide derived from the regulatory subunit (CK2β) of protein kinase 2]
[5]
  inhibition of CK2β interaction with catalytic subunit: inhibits the interaction with the associated catalytic subunit

## infliximab: large molecule biologic targeting TNFα
[6]
  adverse reaction: associated with development of infusion reaction

## YCWSQYLCY (disulfide 2-8 (inferred)) [WP9QY]
[7]
  concentration that inhibits TNFα activity by 35% in HEK-Blue TNFα sensor cells (NF-kB-driven secreted alkaline phosphatase), 1 ng/mL human TNFα, 24 h; the pair said to be blocked is TNFα with TNFR-1: 97.2 µM

## HYWSENLFQPG (cyclised head to tail (N- to C-) via a proline-glycine linker) [cyclic peptide 1 (WP9 loop peptidomimetic 1)]
[7]
  concentration that inhibits TNFα activity by 35% in HEK-Blue TNFα sensor cells (NF-kB-driven secreted alkaline phosphatase), 1 ng/mL human TNFα, 24 h; the pair said to be blocked is TNFα with TNFR-1: 117 µM
